Columns and labels:
Format in all cases: cell-based
E. coli DH5α = test: Antibacterial activity: MIC and growth curve against E. coli DH5α in 96-well plate; conditions: minimal inhibitory concentration against E. coli DH5α; 96-well plate, 5×10^5 CFU/mL, 37° C., judged after 8 h
Summary of the method: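 Log-phase DH5α (OD600 about 0.5, 37° C, 185 rpm in LB) was pelleted, resuspended in fresh LB and seeded at 5×10^5 CFU/mL with recombinant protein at 50, 25 and 12.5 μg/mL (two-fold series), in triplicate. Plates were shaken at 175 rpm, 37° C, and OD600 was read every 30 min. MIC was the lowest concentration with no growth.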

Proteus mirabilis = test: MIC against Gram-negative bacteria: Proteus mirabilis
Summary of the method: (§1)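 Bacteria grown in LB at 37° C with shaking to McFarland 0.5, pelleted and resuspended in fresh LB, then seeded at 5×10^5 CFU/mL per well. Purified recombinant human EGF domain proteins were two-fold serially diluted in triplicate and plates shaken at 37° C, 175 rpm. MIC is the lowest protein concentration with no bacterial growth.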

Enterobacter cloacae = test: MIC against Gram-negative bacteria: Enterobacter cloacae
Summary of the method: as §1

Citrobacter diversus = test: MIC against Gram-negative bacteria: Citrobacter diversus
Summary of the method: as §1

E. coli BL21 = test: MIC against Gram-negative bacteria: E. coli BL21; conditions: for MIC (μg/mL) E. coli BL21 / MIC / MIC against E. coli BL21: E. coli BL21
Summary of the method: as §1

Proteus vulgaris = test: MIC against Gram-negative bacteria: Proteus vulgaris
Summary of the method: as §1

Moraxella catarrhalis = test: MIC against Gram-negative bacteria: Moraxella catarrhalis
Summary of the method: as §1

Serratia marcescens = test: MIC against Gram-negative bacteria: Serratia marcescens
Summary of the method: as §1

Klebsiella pneumonia = test: MIC against Gram-negative bacteria: Klebsiella pneumonia
Summary of the method: as §1

Aeromonas hydrophila = test: MIC against Gram-negative bacteria: Aeromonas hydrophila
Summary of the method: as §1

Pseudomonas aeruginosa = test: MIC against Gram-negative bacteria: Pseudomonas aeruginosa
Summary of the method: as §1

[1] = Proteus mirabilis, 96-well plate, 5×10^5 CFU/mL, 37° C., 10 h
[2] = Enterobacter cloacae, 96-well plate, 5×10^5 CFU/mL, 37° C., 10 h
[3] = Citrobacter diversus, 96-well plate, 5×10^5 CFU/mL, 37° C., 10 h
[4] = 96-well plate, 5×10^5 CFU/mL, 37° C., 10 h
[5] = Proteus vulgaris, 96-well plate, 5×10^5 CFU/mL, 37° C., 10 h
[6] = Moraxella catarrhalis, 96-well plate, 5×10^5 CFU/mL, 37° C., 10 h
[7] = Serratia marcescens, 96-well plate, 5×10^5 CFU/mL, 37° C., 10 h
[8] = Klebsiella pneumonia, 96-well plate, 5×10^5 CFU/mL, 37° C., 10 h
[9] = Aeromonas hydrophila, 96-well plate, 5×10^5 CFU/mL, 37° C., 10 h
[10] = Pseudomonas aeruginosa, 96-well plate, 5×10^5 CFU/mL, 37° C., 10 h
[11] = P. mirabilis, 10 h cultivation at 37° C.
[12] = E. cloacae, 10 h cultivation at 37° C.
[13] = C. diversus, 10 h cultivation at 37° C.
[14] = P. vulgaris, 10 h cultivation at 37° C.
[15] = M. catarrhalis, 10 h cultivation at 37° C.
[16] = S. marcescens, 10 h cultivation at 37° C.
[17] = K. pneumonia, 10 h cultivation at 37° C.
[18] = A. hydrophila, 10 h cultivation at 37° C.
[19] = P. aeruginosa, 10 h cultivation at 37° C.
[20] = 10 h cultivation at 37° C., 5×10^5 CFU/mL, two-fold serial dilution

Substance: PRT130 (ITDRCLPSYCEHGGECSQSWDTFSCDCLGTGYTGETCH; listed as Homo sapiens)
- MIC (E. coli DH5α): 12.5 µg/mL
- MIC (μg/mL) P. mirabilis (Proteus mirabilis; [1]): 12.5 µg/mL
- MIC (μg/mL) E. cloacae (Enterobacter cloacae; [2]): 12.5 µg/mL
- MIC (μg/mL) C. diversus (Citrobacter diversus; [3]): 50 µg/mL
- MIC (μg/mL) E. coli BL21 (E. coli BL21; [4]): 25 µg/mL
- MIC (μg/mL) P. vulgaris (Proteus vulgaris; [5]): 50 µg/mL
- MIC (μg/mL) M. catarrhalis (Moraxella catarrhalis; [6]): 25 µg/mL
- MIC (μg/mL) S. marcescens (Serratia marcescens; [7]): 12.5 µg/mL
- MIC (μg/mL) K. pneumonia (Klebsiella pneumonia; [8]): 25 µg/mL
- MIC (μg/mL) A. hydrophila (Aeromonas hydrophila; [9]): 25 µg/mL
- MIC (μg/mL) P. aeruginosa (Pseudomonas aeruginosa; [10]): 12.5 µg/mL

Substance: PRT1023 (PINYCETGLHNCDIPQRAQCIYTGGSSYTCSCLPGFSGDGQACQ; listed as Homo sapiens)
- MIC (E. coli DH5α): 25 µg/mL
- MIC (Proteus mirabilis; [11]): 12.5 µg/mL
- MIC (Enterobacter cloacae; [12]): 25 µg/mL
- MIC (Citrobacter diversus; [13]): 25 µg/mL
- MIC (E. coli BL21; 10 h cultivation at 37° C.): 12.5 µg/mL
- MIC (Proteus vulgaris; [14]): 50 µg/mL
- MIC (Moraxella catarrhalis; [15]): 12.5 µg/mL
- MIC (Serratia marcescens; [16]): 12.5 µg/mL
- MIC (Klebsiella pneumonia; [17]): 12.5 µg/mL
- MIC (Aeromonas hydrophila; [18]): 12.5 µg/mL
- MIC (Pseudomonas aeruginosa; [19]): 25 µg/mL

Substance: PRT1102 (TIGSCGKNSCQHGGICHQDPIYPVCICPAGYAGRFCE; listed as Homo sapiens)
- MIC (E. coli DH5α): 12.5 µg/mL
- MIC P. mirabilis (Proteus mirabilis; [20]): 12.5 µg/mL
- MIC E. cloacae (Enterobacter cloacae; [20]): 12.5 µg/mL
- MIC C. diversus (Citrobacter diversus; [20]): 12.5 µg/mL
- MIC E. coli BL21 (E. coli BL21; [20]): 12.5 µg/mL
- MIC P. vulgaris (Proteus vulgaris; [20]): 12.5 µg/mL
- MIC M. catarrhalis (Moraxella catarrhalis; [20]): 12.5 µg/mL
- MIC S. marcescens (Serratia marcescens; [20]): 25 µg/mL
- MIC K. pneumonia (Klebsiella pneumonia; [20]): 12.5 µg/mL
- MIC A. hydrophila (Aeromonas hydrophila; [20]): 12.5 µg/mL
- MIC P. aeruginosa (Pseudomonas aeruginosa; [20]): 12.5 µg/mL

Substance: PRT1036 (VEDKCEKACRPEEECLALNSTWGCFCRQDLNSSDVHSLQPQLDCG; listed as Homo sapiens)
- MIC (E. coli DH5α): 25 µg/mL
- MIC (Proteus mirabilis; [11]): 50 µg/mL
- MIC (Enterobacter cloacae; [12]): 50 µg/mL
- MIC (Citrobacter diversus; [13]): 50 µg/mL
- MIC (E. coli BL21; 10 h cultivation at 37° C.): 50 µg/mL
- MIC (Proteus vulgaris; [14]): 50 µg/mL
- MIC (Moraxella catarrhalis; [15]): 12.5 µg/mL
- MIC (Serratia marcescens; [16]): 50 µg/mL
- MIC (Klebsiella pneumonia; [17]): 25 µg/mL
- MIC (Aeromonas hydrophila; [18]): 12.5 µg/mL
- MIC (Pseudomonas aeruginosa; [19]): 25 µg/mL

Substance: PRT1232 (IGQQCPNMCSGHGSCDHGICRCDQGYQGTECH; listed as Homo sapiens)
- MIC (E. coli DH5α): 50 µg/mL
- MIC against P. mirabilis (Proteus mirabilis; [1]): 25 µg/mL
- MIC against E. cloacae (Enterobacter cloacae; [2]): 25 µg/mL
- MIC against C. diversus (Citrobacter diversus; [3]): 25 µg/mL
- MIC against E. coli BL21 (E. coli BL21; [4]): 25 µg/mL
- MIC against P. vulgaris (Proteus vulgaris; [5]): 50 µg/mL
- MIC against M. catarrhalis (Moraxella catarrhalis; [6]): 12.5 µg/mL
- MIC against S. marcescens (Serratia marcescens; [7]): 25 µg/mL
- MIC against K. pneumonia (Klebsiella pneumonia; [8]): 12.5 µg/mL
- MIC against A. hydrophila (Aeromonas hydrophila; [9]): 50 µg/mL
- MIC against P. aeruginosa (Pseudomonas aeruginosa; [10]): 25 µg/mL

Substance: PRT191 (PCLRKYKDFCIHGECKYVKELRAPSCICHPGYHGERCH; listed as Homo sapiens)
- MIC (E. coli DH5α): 12.5 µg/mL
- MIC (μg/mL) P. mirabilis (Proteus mirabilis; P. mirabilis, 10 h cultivation at 37° C., 5×10^5 CFU/mL): 12.5 µg/mL
- MIC (μg/mL) E. cloacae (Enterobacter cloacae; E. cloacae, 10 h cultivation at 37° C., 5×10^5 CFU/mL): 25 µg/mL
- MIC (μg/mL) C. diversus (Citrobacter diversus; C. diversus, 10 h cultivation at 37° C., 5×10^5 CFU/mL): 25 µg/mL
- MIC (μg/mL) E. coli BL21 (E. coli BL21; 10 h cultivation at 37° C., 5×10^5 CFU/mL): 12.5 µg/mL
- MIC (μg/mL) P. vulgaris (Proteus vulgaris; P. vulgaris, 10 h cultivation at 37° C., 5×10^5 CFU/mL): 50 µg/mL
- MIC (μg/mL) M. catarrhalis (Moraxella catarrhalis; M. catarrhalis, 10 h cultivation at 37° C., 5×10^5 CFU/mL): 12.5 µg/mL
- MIC (μg/mL) S. marcescens (Serratia marcescens; S. marcescens, 10 h cultivation at 37° C., 5×10^5 CFU/mL): 12.5 µg/mL
- MIC (μg/mL) K. pneumonia (Klebsiella pneumonia; K. pneumonia, 10 h cultivation at 37° C., 5×10^5 CFU/mL): 12.5 µg/mL
- MIC (μg/mL) A. hydrophila (Aeromonas hydrophila; A. hydrophila, 10 h cultivation at 37° C., 5×10^5 CFU/mL): 12.5 µg/mL
- MIC (μg/mL) P. aeruginosa (Pseudomonas aeruginosa; P. aeruginosa, 10 h cultivation at 37° C., 5×10^5 CFU/mL): 12.5 µg/mL

Substance: PRT1260 (DINECLVNNGGCDHFCRNTVGSFECGCRKGYKLLTDERTCQ; listed as Homo sapiens)
- MIC (E. coli DH5α): 25 µg/mL
- MIC against P. mirabilis (Proteus mirabilis; [1]): 12.5 µg/mL
- MIC against E. cloacae (Enterobacter cloacae; [2]): 25 µg/mL
- MIC against C. diversus (Citrobacter diversus; [3]): 12.5 µg/mL
- MIC against E. coli BL21 (E. coli BL21; [4]): 50 µg/mL
- MIC against P. vulgaris (Proteus vulgaris; [5]): 50 µg/mL
- MIC against M. catarrhalis (Moraxella catarrhalis; [6]): 50 µg/mL
- MIC against S. marcescens (Serratia marcescens; [7]): 25 µg/mL
- MIC against K. pneumonia (Klebsiella pneumonia; [8]): 12.5 µg/mL
- MIC against A. hydrophila (Aeromonas hydrophila; [9]): 50 µg/mL
- MIC against P. aeruginosa (Pseudomonas aeruginosa; [10]): 25 µg/mL
